Results taken from patent US20230372381A1, “COMPOSITIONS AND METHODS UTILIZING PROTEIN INHIBITORS FOR […] INHIBITION AND TREATMENT OF SARS-CoV-2” (Rensselaer Polytechnic Institute, priority 2020, published 2023).
“Also recorded” adds a separate entry of the source. Read-outs that look alike come from different tables or passages of the source.

Assays:
in vitro [1] = details: human
SARS-CoV-2 [2] = experiment: SARS-CoV-2 viral replication assay in Vero E6 cells; type: cell-based
SARS-CoV-2 [3] = experiment: microbe, parasite or virus in culture; type: cell-based
in vitro [4] = details: African green monkey
Description: (§1) Cytotoxicity was also performed using the MTT assay (Roche), according to the manufacturer's instructions. Cytotoxicity was performed in uninfected VeroE6 cells with same compound dilutions and concurrent with viral replication assay. All assays were performed in biologically independent triplicates.

SARS-CoV-2 PL^pro = SARS-CoV-2 PL^pro (Severe acute respiratory syndrome coronavirus 2, UniProt P0DTD1); experiment: PL^pro fluorescence proteolysis assay (zRLRGG/AMC substrate); type: biochemical; details: for Relative PL^pro Inhibition: estimated IC50 class
SARS-CoV-2 M^pro [5] = target: T1, SARS-CoV-2 M^pro (Severe acute respiratory syndrome coronavirus 2, UniProt P0DTD1); experiment: M^pro protease inhibition (FRET assay); type: biochemical; details: for Relative M^pro Inhibition: estimated IC50 class
SARS-CoV-2 [6] = experiment: Combination antiviral (synergy) assay with remdesivir; type: cell-based; details: for Synergy Score: combination with remdesivir, SynergyFinder, ZIP method; for interaction with remdesivir (additive or synergistic): inhibition of SARS-CoV-2 replication in combination with remdesivir
SARS-CoV-2 M^pro [7] = target: T1, SARS-CoV-2 M^pro; experiment: M^pro 1D 1H-NMR proteolysis assay; type: biochemical; details: 50 μM inhibitor
Vero E6 cells = experiment: Cytotoxicity MTT assay in Vero E6 cells; details: cytotoxicity, Vero E6 Cells
Description: as §1

HEK 293T cells = experiment: Cytotoxicity in HEK 293T cells; details: cytotoxicity, HEK 293T Cells
[8] = Cytotoxicity MTT assay in Vero E6 cells; details: African green monkey
Description: as §1

[9] = Cytotoxicity in HEK 293T cells; details: human
[10] = Severe acute respiratory syndrome coronavirus 2, Vero C1008, viral replication, Vero E6 Cells, read-out: IC50
[11] = Severe acute respiratory syndrome coronavirus 2, viral replication, HEK 293T Cells (hACE2-293T), read-out: IC50
[12] = Severe acute respiratory syndrome coronavirus 2, Vero C1008
[13] = Severe acute respiratory syndrome coronavirus 2, HEK-293T

Row | Structure (SMILES) | CC50 (in vitro [1]) | IC50 (SARS-CoV-2 [2]; [10]) | IC50 (SARS-CoV-2 [3]; [11]) | inhibition of PL^pro protease activity (words) (SARS-CoV-2 PL^pro) | Relative PL^pro Inhibition (SARS-CoV-2 PL^pro) | inhibition of M^pro activity (words) (SARS-CoV-2 M^pro [5]) | Relative M^pro Inhibition (SARS-CoV-2 M^pro [5]) | Synergy Score (SARS-CoV-2 [6]) | interaction with remdesivir (additive or synergistic) (SARS-CoV-2 [6]) | M^pro inhibition in the NMR assay (SARS-CoV-2 M^pro [7]) | CC50 (Vero E6 cells) | further results
1 | Cc1cnc(C(=O)N[C@H]2CCCCC/C=C\[C@@H]3C[C@@]3(C(=O)NS(=O)(=O)C3CC3)NC(=O)[C@@H]3C[C@@H](Oc4nc5ccccc5c5ccccc45)CN3C2=O)cn1 [PAR, paritaprevir] | > 100 µM | 6 µM | 0.55 µM | did inhibit PL^pro protease activity | moderate (moderate to an estimated IC50 in the range 20-50 μM) | not M^pro | none (none indicates no observed inhibition of protease activity at drug concentrations of 50 μM) | +17.3 | synergistic |  |  | CC50 (in vitro [4]): > 100 µM; interaction with remdesivir (additive or synergistic) (SARS-CoV-2 [6]; listed as paritaprevir): synergized with remdesivir
2 | C=C[C@@H]1C[C@]1(NC(=O)[C@@H]1C[C@@H](Oc2ncc(OC)c3ccc(Cl)cc23)CN1C(=O)[C@@H](NC(=O)OC(C)(C)C)C(C)(C)C)C(=O)NS(=O)(=O)C1CC1 [asunaprevir] |  |  |  |  |  | moderately inhibit |  |  |  |  |  | 
3 | COc1ccc2c(O[C@@H]3C[C@H]4C(=O)N[C@]5(C(=O)NS(=O)(=O)C6CC6)C[C@H]5/C=C\CCCCN(C)C(=O)[C@@H]4C3)cc(-c3nc(C(C)C)cs3)nc2c1C [SIM, simeprevir] | > 50 µM | 4.2 µM | 2.3 µM | did inhibit PL^pro protease activity | strong (Strong inhibition corresponds to an estimated IC50 < about 20 μM) | moderately inhibit; also recorded: inhibited both M^pro and PL^pro | moderate (moderate to an estimated IC50 in the range 20-50 μM) | +30.2 | synergistic | moderate inhibitors of M^pro | 2.1 µM | interaction with remdesivir (additive or synergistic) (SARS-CoV-2 [6]; listed as simeprevir): synergized with remdesivir
4 | CC(C)(C)NC(=O)N[C@H](C(=O)N1C[C@H]2[C@@H]([C@H]1C(=O)NC(CC1CCC1)C(=O)C(N)=O)C2(C)C)C(C)(C)C (stereo partly drawn) [BOC, boceprevir] | > 50 µM | 19.6 µM | 5.4 µM |  |  |  |  | −7.6 |  |  |  | CC50 (in vitro [4]): > 50 µM
5 | CC(=O)Nc1ccc(C)c(C(=O)N[C@H](C)c2cccc3ccccc23)c1 [Compound 6] |  |  |  | specifically inhibits PL^pro |  | not M^pro |  |  | synergy with remdesivir |  |  | 
6 | CCCC[C@H](NC(=O)[C@@H]1[C@@H]2[C@H](CN1C(=O)[C@@H](NC(=O)NC1(CS(=O)(=O)C(C)(C)C)CCCCC1)C(C)(C)C)C2(C)C)C(=O)C(=O)NC1CC1 [NAR, narlaprevir] |  |  |  |  |  |  |  | −3.6 |  |  |  | IC50 (SARS-CoV-2 [2]; [12]): 7.7 µM; IC50 (SARS-CoV-2 [3]; [13]): 15 µM; CC50 (HEK 293T cells): 72 µM; CC50 [8]: > 20 µM
7 | CC[C@@H]1C[C@]1(NC(=O)[C@@H]1C[C@@H]2CN1C(=O)[C@H](C(C)(C)C)NC(=O)OCC(C)(C)CCCCc1cccc3c1CN(C3)C(=O)O2)C(=O)NS(=O)(=O)C1CC1 [VAN, vaniprevir] |  |  |  |  | strong (Strong inhibition corresponds to an estimated IC50 < about 20 μM) |  | strong (Strong inhibition corresponds to an estimated IC50 < about 20 μM) | +10.9 | synergistic | inhibitory activity comparable to telaprevir | 4.3 µM | IC50 (SARS-CoV-2 [2]; [12]): 6.2 µM; IC50 (SARS-CoV-2 [3]; [13]): 3 µM; inhibition of PL^pro protease activity (words) (SARS-CoV-2 PL^pro; listed as Vaniprevir): good inhibitor of both M^pro and PL^pro; inhibition of PL^pro protease activity (words) (SARS-CoV-2 PL^pro; listed as vaniprevir): did inhibit PL^pro protease activity; CC50 [9]: > 50 µM; inhibition of M^pro activity (words) (SARS-CoV-2 M^pro [5]; listed as Vaniprevir): good inhibitor of both M^pro and PL^pro; inhibition of M^pro activity (words) (SARS-CoV-2 M^pro [5]; listed as vaniprevir): inhibited both M^pro and PL^pro; interaction with remdesivir (additive or synergistic) (SARS-CoV-2 [6]; listed as vaniprevir): synergized with remdesivir
8 | C=C[C@@H]1C[C@]1(NC(=O)[C@@H]1C[C@@H]2CN1C(=O)[C@H](C(C)(C)C)NC(=O)O[C@@H]1C[C@H]1CCCCCc1nc3ccc(OC)cc3nc1O2)C(=O)NS(=O)(=O)C1CC1.O [GRZ, grazoprevir] |  |  |  | did inhibit PL^pro protease activity | moderate (moderate to an estimated IC50 in the range 20-50 μM) | moderately inhibit; also recorded: inhibited both M^pro and PL^pro | moderate (moderate to an estimated IC50 in the range 20-50 μM) | +25.0 | synergistic | moderate inhibitors of M^pro | > 50 µM | IC50 (SARS-CoV-2 [2]; viral replication, Vero E6 Cells, read-out: IC50): 10.8 µM; IC50 (SARS-CoV-2 [3]; viral replication, HEK 293T Cells (hACE2-293T), read-out: IC50): 16.7 µM; CC50 (HEK 293T cells): > 50 µM; interaction with remdesivir (additive or synergistic) (SARS-CoV-2 [6]; listed as grazoprevir): synergized with remdesivir
